Marks after values point to notes of the source that are not given here.
Key:
[1] = test system: Wistar rats; assay: Blood glucose after glucose load in rats with alloxan-induced diabetes; format: in vivo; details: 100 mg/kg; for Glucose concentration: glucose load 4 g/kg 4 hours after drug; for time after glucose administration at which glucose indicators normalized: alloxan diabetes, glucose load 4 g/kg
Method: The study was conducted on Wistar rats weighing 220-250 g. All animals were subjected to two weeks of observation prior to the experiment to exclude infection. Rats were housed in standard cages, 5 individuals in each. The animals stayed in a room with a temperature of 22±2°C, air humidity 60-70% and in natural lighting (12/12 in a day/night cycle). The animals had free access to water and standard laboratory feed ad libitum.
Diabetes was caused by a single intraperitoneal administration of alloxan at a dose of 170 mg/kg bw. The development of diabetes was observed on the basis of the main symptoms (polydipsia, polyphagia), glycosuria and hyperglycemia. Animals with high glucose levels of at least 14 mmol/L were selected for the experiment.
Animals were randomized into 6 groups of 8 individuals each. The first group, the control group, was formed from healthy animals without diabetes. The control group (healthy animals) received NaCl 1 ml/kg; Group 2. - diabetes mellitus (DM), received NaCl 1 ml/kg; Group 3. - DM + Betulin, at a dose of 100 mg/kg; Group 4. - DM + Lupeol, at a dose of 100 mg/kg; Group 5 - DM + Betulonic acid, at a dose of 100 mg/kg; Group 6 - DM + Betulinic acid, at a dose of 100 mg/kg; Group 7 - DM + Betulin-3,28-diacetate, at a dose of 100 mg/kg.
4 hours after drug administration, all animals intragastrically received a 40% glucose solution at a dose of 4 g/kg. The time of administration is determined in the available literature on its pharmacokinetics - peak plasma levels of lupane triterpenoids in rats are observed 3-4 hours after intragastric administration.
Peripheral blood glucose was determined using a Roche AccuCheck Active meter (USA) before and after glucose administration every 60 minutes for 5 hours. A drop of blood was taken from the tail tip incision.

[2] = target: T1, rat liver glucose-6-phosphate dehydrogenase (DG-6-P) (Rattus norvegicus, UniProt P05370); assay: Effect on DG-6-P activity in 5.6-fold purified rat liver enzyme; format: biochemical; details: for remaining activity at 5 µM / remaining activity at 25 µM: read-out: % of control (DG-6-P activity)
T1 construct: an additional enzyme purification procedure was performed; from tissue; host or cells: rat liver (5.6-fold purified enzyme preparation)
Description: (§1) Rat liver glycogen phosphorylase, rat liver and skeletal muscle hexokinase, rat liver glucose-6-phosphate dehydrogenase (DG-6-P), rat liver and skeletal muscle phosphofructokinase were selected as potential targets for in vitro testing of the hypoglycemic activity of lupane triterpenoids.
Surprising results were obtained by examining the effect of lupane triterpenoids on glucose-6-phosphate activity. […] In both cases, the observed effects were dose-dependent. […] Table 1. Effect of lupane triterpenoids on DG-6-P activity in 5.6-fold purified rat liver

[3] = target: T2, Rat liver glycogen phosphorylase (Rattus norvegicus, UniProt P09811); assay: Effect on glycogen phosphorylase activity in rat liver homogenates and post-mitochondrial fraction; format: biochemical
T2 construct: from tissue; host or cells: rat liver homogenates and post-mitochondrial fraction
T2 sequence (P09811 1-850): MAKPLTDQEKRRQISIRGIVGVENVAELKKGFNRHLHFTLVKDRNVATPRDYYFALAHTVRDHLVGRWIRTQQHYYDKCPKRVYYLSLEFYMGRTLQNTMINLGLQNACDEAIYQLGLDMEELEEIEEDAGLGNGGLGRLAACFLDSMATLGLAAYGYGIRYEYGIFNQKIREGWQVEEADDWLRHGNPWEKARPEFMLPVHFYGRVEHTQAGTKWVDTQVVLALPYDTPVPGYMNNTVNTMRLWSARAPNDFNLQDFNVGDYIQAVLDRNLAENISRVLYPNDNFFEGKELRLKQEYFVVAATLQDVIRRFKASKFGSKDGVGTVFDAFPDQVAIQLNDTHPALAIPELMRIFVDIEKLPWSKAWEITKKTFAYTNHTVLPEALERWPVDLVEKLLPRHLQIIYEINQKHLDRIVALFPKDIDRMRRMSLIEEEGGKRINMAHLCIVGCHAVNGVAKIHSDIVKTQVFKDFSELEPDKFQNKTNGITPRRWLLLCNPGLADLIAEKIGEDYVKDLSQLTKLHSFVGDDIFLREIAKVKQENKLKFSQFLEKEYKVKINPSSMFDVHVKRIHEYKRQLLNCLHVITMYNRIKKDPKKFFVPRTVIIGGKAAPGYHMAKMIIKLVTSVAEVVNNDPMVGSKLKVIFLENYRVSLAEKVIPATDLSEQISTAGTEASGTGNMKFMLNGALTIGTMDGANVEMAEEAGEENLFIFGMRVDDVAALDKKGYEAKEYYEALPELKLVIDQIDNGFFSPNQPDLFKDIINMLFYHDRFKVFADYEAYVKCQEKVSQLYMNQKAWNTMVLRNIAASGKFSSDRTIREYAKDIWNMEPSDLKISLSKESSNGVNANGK
Description: as §1

[4] = test system: Wistar rats; assay: Blood glucose in rats with glucose-induced hyperglycemia (OGTT-2 / OGTT-4); format: in vivo; details: compared to control animals
Method: To study the effect of betulin, 3,28-diacetate betulin, betulinic acid and lupeol on blood glucose levels in rats with induced hyperglycemia, the animals received 2 hours prior to glucose administration, test substances at doses of 100 or 1000 mg/kg. Hyperglycaemia was caused by oral administration of a 40% glucose solution at a dose of 2 g/kg (OGTT-2) or 4 g/kg (OGTT-4). The study was conducted on Wistar rats weighing 220-250 g. All animals were subjected to two weeks of observation prior to the experiment to exclude infection. Rats were housed in standard cages, 5 individuals in each. […] The animals had free access to water and standard laboratory feed ad libitum. Animals were randomized into 5 groups, 8 individuals each. Hyperglycaemia was caused by administration of a 40% glucose solution at doses of 2 or 4 g/kg. […] Blood glucose was determined with a Roche AccuCheck Active glucometer (USA) before and after glucose administration every 30 minutes for 2 hours and then every 60 minutes for 6 hours.

[5] = test system: pancreatic islet β-cells; assay: Insulin secretion by isolated Langerhans islets (enzyme immunoassay); format: cell-based; details: 10 µM, 30 minutes incubation, compared to the control group
Method: To study the effect of betulin and betulinic acid on insulin secretion by pancreatic islet β-cells, their solutions in DMSO were incubated with isolated Langerhans islands in concentrations of 10 µM for 30 minutes, after which the insulin content in the incubation medium was determined by enzyme immunoassay.
The strongest reaction was observed after 30 minutes of incubation in the presence of 10 µM lupane triterpenoids (Figure 1).

[6] = test system: Wistar rats; assay: Pancreatic islet morphometry in rats with alloxan-induced diabetes, 30 days treatment; format: in vivo
Method: The possible cytoprotective effect of lupane triterpenoids on the functional state of the pancreas in alloxan-induced diabetes in rats was evaluated. Alloxane was used to induce diabetes, which causes damage to the necrotic islet type pancreatic apparatus due to selective accumulation in β-cells and induction of massive free radical generation. The study was conducted on Wistar rats weighing 220-250 g. All animals were subjected to two weeks of observation prior to the experiment to exclude infection. Rats were housed in standard cages, 5 individuals in each. […] The animals had free access to water and standard laboratory feed ad libitum. Diabetes was caused by a single intraperitoneal administration of alloxan at a dose of 170 mg/kg bw. The development of diabetes was observed on the basis of the main symptoms (polydipsia, polyphagia), glycosuria and hyperglycemia. Animals with high glucose levels of at least 14 mmol/L were selected for the experiment. Animals were randomized into 8 groups of 8 individuals each. The first group, the control group, was formed from healthy animals without diabetes. The control group (healthy animals) received NaCl 1 ml/kg; Group 2 - DM + Lupeol, at a dose of 100 mg/kg; Group 3 - DM + Betulonic acid, at a dose of 100 mg/kg; Group 4 - DM + 3,28-betulin diacetate, at a dose of 100 mg/kg; Group 5 - DM + Betulinic acid, at a dose of 50 mg/kg; Group 6 - DM + Betulinic acid, at a dose of 100 mg/kg; Group 7 - DM + Betulin, at a dose of 50 mg/kg; Group 8 - DM + Betulin, at a dose of 100 mg/kg.

[7] = 50 mg/kg/day for 30 days, compared to the untreated group

T1 sequence (P05370 whole entry): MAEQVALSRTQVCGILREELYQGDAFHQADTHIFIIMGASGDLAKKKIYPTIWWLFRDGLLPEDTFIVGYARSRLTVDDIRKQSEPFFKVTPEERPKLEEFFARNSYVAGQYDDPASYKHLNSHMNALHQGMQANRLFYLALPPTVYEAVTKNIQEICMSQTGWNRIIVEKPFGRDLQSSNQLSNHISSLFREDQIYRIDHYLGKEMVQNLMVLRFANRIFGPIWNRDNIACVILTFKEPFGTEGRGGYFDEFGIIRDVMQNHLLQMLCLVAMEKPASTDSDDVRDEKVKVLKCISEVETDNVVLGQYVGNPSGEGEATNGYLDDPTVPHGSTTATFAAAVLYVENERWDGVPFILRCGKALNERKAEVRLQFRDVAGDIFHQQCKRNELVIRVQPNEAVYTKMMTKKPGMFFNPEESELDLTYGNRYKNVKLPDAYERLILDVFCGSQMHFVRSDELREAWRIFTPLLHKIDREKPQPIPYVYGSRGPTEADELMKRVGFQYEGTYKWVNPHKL

SMILES	Glucose concentration ([1]; blood collection time 5 hours)	E (DG-6-P activity) ([2]; 5 µM)	remaining activity at 5 µM ([2]; 5 µM) [%]	E (DG-6-P activity) ([2]; 25 µM)	remaining activity at 25 µM ([2]; 25 µM) [%]	glycogen phosphorylase activity [3]	time after glucose administration at which glucose indicators normalized [1] [h]	Glucose concentration ([1]; blood collection time 0 hours)	Glucose concentration ([1]; blood collection time 2 hours)	reduction in blood glucose levels at the peak of hyperglycemia [4]	insulin secretion by pancreatic islet β-cells [5]	area of Langerhans islets and their number ([6]; 50 mg/kg/day for 30 days)	increase of the number of β-cells in the islets [6, 7]	islet diameter increase [6, 7]	morphological picture of the pancreas ([6]; 100 mg/kg/day for 30 days, compared to the untreated group)
C=C(C)[C@@H]1CC[C@]2(COC(C)=O)CC[C@]3(C)[C@H](CC[C@@H]4[C@@]5(C)CC[C@H](OC(C)=O)C(C)(C)[C@@H]5CC[C@]43C)[C@@H]12 [3,28-betulin diacetate]	8,51±0,52 mmol/l	0,158±0,002	75	0,111±0,008	52.8	–	–	–	–	–	–	–	–	–	–
CC1(C)CC[C@]23CC[C@]4(C)[C@H](CC[C@@H]5[C@@]6(C)CC[C@H](O)C(C)(C)[C@@H]6CC[C@]54C)[C@H]2[C@H]1OC3 [Allobetulin]	–	0,151±0,004	72	0,103±0,002	49	–	–	–	–	–	–	–	–	–	–
C=C(C)[C@@H]1CC[C@]2(CO)CC[C@]3(C)[C@H](CC[C@@H]4[C@@]5(C)CC[C@H](O)C(C)(C)[C@@H]5CC[C@]43C)[C@@H]12 [Betulin]	6,01±0,78 mmol/l	0,149±0,004	71	0,100±0,002	47.6	greatest inhibitory effect	4	10,82±0,31 mmol/l	22,61±0,4 mmol/l	30-35%	statistically significantly increase	tendency to increase	25-35%	10-15%	significant improvement
C=C(C)[C@@H]1CC[C@]2(C(=O)O)CC[C@]3(C)[C@H](CC[C@@H]4[C@@]5(C)CC[C@H](O)C(C)(C)[C@@H]5CC[C@]43C)[C@@H]12 [Betulinic acid]	7,88±1,30* * mmol/l	–	68.8	–	44.2	–	4	10,12±0,70 mmol/l	25,64±1,50 mmol/l	30-35%	–	–	25-35%	10-15%	–
C=C(C)[C@@H]1CC[C@]2(C(=O)O)CC[C@]3(C)[C@H](CC[C@@H]4[C@@]5(C)CCC(=O)C(C)(C)[C@@H]5CC[C@]43C)[C@@H]12 [Betulonic acid]	6,52±0,7 mmol/l	0,148±0,003	70.3	0,109±0,007	51.9	greatest inhibitory effect	–	10,32±0,77 mmol/l	18,5±0,32 mmol/l	–	–	–	–	–	–
C=C(C)[C@@H]1CC[C@]2(C)CC[C@]3(C)[C@H](CC[C@@H]4[C@@]5(C)CC[C@H](O)C(C)(C)[C@@H]5CC[C@]43C)[C@@H]12 [Lupeol]	9,38±0,75 mmol/l	0,143±0,005	68	0,113±0,009	53.6	–	–	–	–	–	–	–	–	–	–

Reference: EP3730147A1, “PREPARATION WITH HYPOGLYCEMIC EFFECT” (Instytut Biotechnologii i Badan Medycznych "Biolamed" SP. Z …, priority 2019, dated 2020)
